Patent US8735388B2, “Heterocyclic compounds with affinity to muscarinic receptors” (Abbvie B. V. A., priority 2007, dated 2014)
Like-named read-outs stand apart in the source and are kept apart here.

Legend:
[1] = biological target: T1, Muscarine M4 (GPCR-A-MA-ACH M4) (Homo sapiens, UniProt P08173); assay: Muscarine M4 receptor binding, 3H-4DAMP; conditions: human M4, CHO cells, ligand 0.2 nM, 60 min/22° C.; for Ki: read-out: RB Musc. M4 3H-DAMP pKi (converted)
T1 construct: expressed in transfected cells; host or cells: CHO cells
T1 sequence (P08173 1-479): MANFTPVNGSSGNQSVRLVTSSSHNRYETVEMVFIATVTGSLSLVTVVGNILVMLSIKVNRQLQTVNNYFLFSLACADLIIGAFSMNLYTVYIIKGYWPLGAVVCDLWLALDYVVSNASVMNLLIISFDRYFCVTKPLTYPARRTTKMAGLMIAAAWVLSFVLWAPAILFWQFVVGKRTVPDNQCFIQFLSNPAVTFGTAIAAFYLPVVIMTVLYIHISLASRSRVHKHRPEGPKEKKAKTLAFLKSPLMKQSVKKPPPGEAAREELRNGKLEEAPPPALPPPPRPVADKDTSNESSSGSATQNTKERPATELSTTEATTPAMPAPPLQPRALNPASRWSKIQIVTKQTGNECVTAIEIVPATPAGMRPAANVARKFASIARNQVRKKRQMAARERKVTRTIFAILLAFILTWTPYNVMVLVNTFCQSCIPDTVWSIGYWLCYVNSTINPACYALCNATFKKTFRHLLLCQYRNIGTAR
Procedure: (§1) Compounds were dissolved in DMSO (10 mM) and diluted in assay buffer to test concentration. Prime testing was at 10 μM; for actives (PI, percent inhibition with respect to total and non-specific binding >40%) testing was continued at lower concentrations in 10-fold dilutions: 1 μM, 0.1 μM, etc.
(§2) Following incubation of compound with the receptor preparation (from ‘Tissue’) and the Ligand at the time and temperature indicated, the receptor preparations were rapidly filtered under vacuum through glass fibre filters; the filters were washed extensively with an ice-cold buffer using a harvester. Bound radioactivity was measured by scintillation counting using a liquid scintillation cocktail.
(§3) Results were expressed as percentage of total Ligand binding and that of Non Specific Binding, per concentration of Compound tested (duplicates); from the concentration—displacement curves IC50 values were determined by non-linear regression analysis using Hill equation curve fitting. The inhibition constants (Ki) were calculated from the Cheng-Prushoff equation Ki=IC50/(1+L/Kd), where L is the concentration of radioligand in the assay, and Kd the affinity of the radioligand for the receptor. Results were expressed as pKi's, means±SD of at least 2 separate experiments; i.e. outliers (outside+/−1 std of mean) and discrepancies were excluded.

[2] = biological target: T1, Muscarine M4 (GPCR-A-MA-ACH M4); assay: Muscarine M4 receptor binding, 3H-Oxotremorine
Procedure: as §1, §2, §3

[3] = biological target: T1, Muscarine M4 (GPCR-A-MA-ACH M4); assay: Muscarine M4 cell-based functional assay (CHO cells, Ca2+ - Aequorin luminescence)
Procedure: Compounds were dissolved in DMSO (10 mM) and diluted in assay buffer to test concentration. Prime testing was at 1 μM; for actives in antagonist mode (PI, percent inhibition with respect to reference agonist and blank>30%) as well as actives in agonist mode (PS, percent stimulation with respect to reference agonist and blank>30%) testing was continued at lower concentrations in 10-fold dilutions: 0.1 μM, 0.01 μM, etc.
Cells were incubated with compound and the response indicated was measured.
The results are expressed as a percent of reference agonist values and blanks in the presence of the test compound, percent stimulation for agonist mode; for the antagonist mode (test compound in the presence of reference agonist) as percent inhibition. The EC50 values (concentration causing a half-maximal stimulation of control values), IC50 values (concentration causing a half-maximal inhibition of control values) were determined by non-linear regression analysis of the concentration-response curves using Hill equation curve fitting.

[4] = biological target: T2, Muscarine M1 (GPCR-A-MA-ACH M1) (Homo sapiens, UniProt P11229); assay: Muscarine M1 receptor binding, 3H-Pirenzepine; conditions: human M1, CHO cells, ligand 2 nM, 60 min/22° C.; for Ki: read-out: RB Musc. M1 3H-Pirenzepine pKi (converted)
T2 construct: expressed in transfected cells; host or cells: CHO cells
T2 sequence (P11229 1-460): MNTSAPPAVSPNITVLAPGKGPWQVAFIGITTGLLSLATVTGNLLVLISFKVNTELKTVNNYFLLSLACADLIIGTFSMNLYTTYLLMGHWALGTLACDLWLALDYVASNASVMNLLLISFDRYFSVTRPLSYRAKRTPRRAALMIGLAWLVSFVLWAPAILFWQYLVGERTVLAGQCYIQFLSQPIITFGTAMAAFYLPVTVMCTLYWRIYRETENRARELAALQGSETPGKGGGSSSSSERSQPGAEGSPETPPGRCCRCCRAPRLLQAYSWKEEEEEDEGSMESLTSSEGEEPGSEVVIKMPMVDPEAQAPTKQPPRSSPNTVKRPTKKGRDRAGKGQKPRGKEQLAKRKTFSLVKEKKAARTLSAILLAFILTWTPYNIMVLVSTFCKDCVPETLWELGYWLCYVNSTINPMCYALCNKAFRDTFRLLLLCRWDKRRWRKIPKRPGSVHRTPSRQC
Procedure: as §1, §2, §3

[5] = biological target: T2, Muscarine M1 (GPCR-A-MA-ACH M1); assay: Muscarine M1 cell-based functional assay (CHO cells, Ca2+ - FLIPR Fluorimetry); conditions: for EC50: read-out: Cell funct. Musc. M1 Agonism pEC50 (converted)
[6] = biological target: T3, Muscarine M2 (GPCR-A-MA-ACH M2) (Homo sapiens, UniProt P08172); assay: Muscarine M2 receptor binding
T3 construct: expressed in transfected cells; host or cells: CHO cells
T3 sequence (P08172 1-466): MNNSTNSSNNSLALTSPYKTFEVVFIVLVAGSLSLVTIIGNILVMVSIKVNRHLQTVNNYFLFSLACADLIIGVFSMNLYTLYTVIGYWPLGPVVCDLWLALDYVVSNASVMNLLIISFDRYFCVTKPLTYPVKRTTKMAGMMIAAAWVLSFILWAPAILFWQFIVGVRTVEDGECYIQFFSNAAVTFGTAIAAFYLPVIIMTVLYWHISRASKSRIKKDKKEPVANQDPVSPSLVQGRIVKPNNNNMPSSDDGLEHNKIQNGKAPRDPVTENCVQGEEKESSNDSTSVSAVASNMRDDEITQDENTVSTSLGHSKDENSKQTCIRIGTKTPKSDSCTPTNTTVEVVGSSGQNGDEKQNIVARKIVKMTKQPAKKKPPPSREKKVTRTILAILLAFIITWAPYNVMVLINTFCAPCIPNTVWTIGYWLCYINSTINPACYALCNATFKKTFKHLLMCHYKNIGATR

[7] = biological target: T4, Muscarine M2 (GPCR-A-MA-ACH M2) (Cavia porcellus, UniProt H0VRN8); assay: Muscarine M2 functional assay, isolated organ (left atrium, electrically paced), agonist and antagonist mode; parameters: species or system Guinea Pig; conditions: for EC50: read-out: Cell funct. Musc. M2 Agonism pEC50 (converted)
T4 construct: from tissue; host or cells: guinea pig left atrium (electrically paced)
T4 sequence (H0VRN8 1-466): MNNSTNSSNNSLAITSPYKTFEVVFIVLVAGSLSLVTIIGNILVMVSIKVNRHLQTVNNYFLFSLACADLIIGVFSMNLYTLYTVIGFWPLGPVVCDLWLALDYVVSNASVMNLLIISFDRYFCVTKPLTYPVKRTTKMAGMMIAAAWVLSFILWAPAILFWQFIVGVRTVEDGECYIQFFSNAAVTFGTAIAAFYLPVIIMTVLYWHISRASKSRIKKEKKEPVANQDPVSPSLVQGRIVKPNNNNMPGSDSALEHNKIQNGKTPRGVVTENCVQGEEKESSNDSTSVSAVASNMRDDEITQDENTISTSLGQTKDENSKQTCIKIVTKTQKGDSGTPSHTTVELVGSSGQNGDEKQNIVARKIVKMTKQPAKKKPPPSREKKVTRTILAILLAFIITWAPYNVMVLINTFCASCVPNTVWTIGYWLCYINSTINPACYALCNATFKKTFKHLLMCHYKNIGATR

[8] = biological target: T5, Muscarine M3 (GPCR-A-MA-ACH M3) (Homo sapiens, UniProt P20309); assay: Muscarine M3 receptor binding
T5 construct: expressed in transfected cells; host or cells: CHO cells
T5 sequence (P20309 whole entry): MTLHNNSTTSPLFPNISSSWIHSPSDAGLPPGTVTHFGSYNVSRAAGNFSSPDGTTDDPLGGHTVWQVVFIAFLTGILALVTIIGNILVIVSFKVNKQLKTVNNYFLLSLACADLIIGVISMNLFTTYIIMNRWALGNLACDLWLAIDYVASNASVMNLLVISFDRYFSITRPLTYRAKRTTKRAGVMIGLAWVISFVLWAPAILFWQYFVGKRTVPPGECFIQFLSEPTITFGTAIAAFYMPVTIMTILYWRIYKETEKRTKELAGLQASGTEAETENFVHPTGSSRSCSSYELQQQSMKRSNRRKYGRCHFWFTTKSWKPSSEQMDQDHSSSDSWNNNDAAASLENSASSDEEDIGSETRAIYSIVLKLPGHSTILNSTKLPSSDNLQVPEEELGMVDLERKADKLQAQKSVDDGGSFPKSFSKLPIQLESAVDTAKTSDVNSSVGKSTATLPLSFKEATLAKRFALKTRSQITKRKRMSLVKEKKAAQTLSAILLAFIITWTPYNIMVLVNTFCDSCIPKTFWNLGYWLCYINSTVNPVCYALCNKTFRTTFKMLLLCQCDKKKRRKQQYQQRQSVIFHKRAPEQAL

[9] = biological target: T6, Muscarine M3 (GPCR-A-MA-ACH M3) (Cavia porcellus, UniProt H0W1Z3); assay: Muscarine M3 functional assay, isolated organ (ileum), agonist and antagonist mode; parameters: species or system Guinea Pig; conditions: for EC50: read-out: Cell funct. Musc. M3 Agonism pEC50 (converted)
T6 construct: from tissue; host or cells: guinea pig ileum
T6 sequence (H0W1Z3 1-590): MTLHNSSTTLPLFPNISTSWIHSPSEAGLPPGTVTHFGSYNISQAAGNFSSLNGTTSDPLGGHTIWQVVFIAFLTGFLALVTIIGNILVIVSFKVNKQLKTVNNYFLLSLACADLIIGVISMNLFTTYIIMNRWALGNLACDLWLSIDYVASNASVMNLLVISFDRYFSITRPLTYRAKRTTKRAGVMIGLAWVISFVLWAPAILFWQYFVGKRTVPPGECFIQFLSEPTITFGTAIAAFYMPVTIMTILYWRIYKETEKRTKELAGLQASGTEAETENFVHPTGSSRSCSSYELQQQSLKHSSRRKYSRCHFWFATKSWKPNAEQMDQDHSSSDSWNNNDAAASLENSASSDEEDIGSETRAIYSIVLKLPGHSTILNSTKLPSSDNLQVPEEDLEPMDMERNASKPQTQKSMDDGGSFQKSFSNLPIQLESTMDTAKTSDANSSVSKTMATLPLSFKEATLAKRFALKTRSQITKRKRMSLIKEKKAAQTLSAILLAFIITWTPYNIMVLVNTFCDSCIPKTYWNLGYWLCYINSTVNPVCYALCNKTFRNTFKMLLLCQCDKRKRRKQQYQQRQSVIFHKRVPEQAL

[10] = human M4, CHO cells, receptor binding, ligand 6 nM, 30 min/25° C., read-out: RB Musc. M4 3H-Oxotremorine pKi (converted)
[11] = human M4, CHO cells, agonist mode, reference agonist oxotremorine, read-out: Cell funct. Musc. M4 Agonism pEC50 (converted)
[12] = human M1, CHO cells, agonist mode, reference agonist acetylcholine
[13] = human M2, CHO cells, receptor binding
[14] = read-out: Cell funct. Musc. M2 Antagonism pA2 (converted)
[15] = human M3, CHO cells, receptor binding

Ki [2, 10] | EC50 [3, 11] | EC50 [5, 12] | Ki [6, 13] | Kb [7, 14] | Ki [8, 15] | SMILES | Ki [1] | Ki [4] | EC50 [7] | Kb [9] | EC50 [9] | Ki [2] | EC50 [5] | Ki [6] | Kb [7] | Ki [8] | also measured
158 nM | > 10000 nM | 398 nM | 2000 nM | > 1000 nM | 50.1 nM | CC(C)CCSc1c[nH]nc1C1=CCCN(C)C1 [Compound 22S, 3-[4-(3-methyl-butylsulfanyl)-1H-pyrazol-3-yl]-1,2,5,6-tetrahydro-1-methylpyridine] | 50.1 nM | 126 nM | > 1000 nM | 100 nM | > 1000 nM |  |  |  |  |  | 
 |  |  |  |  |  | CCCOc1c[nH]nc1C1CN2CCC1CC2 (stereo not shown) [Compound 52B, 3-(4-Propoxy-1H-pyrazol-3-yl)-1-azabicyclo[2.2.2]octane] | 126 nM | 631 nM | > 1000 nM | > 1000 nM | > 1000 nM | 63.1 nM | 7.94 nM | 1260 nM | 25.1 nM | 316 nM | EC50 [3]: 100 nM
200 nM | 501 nM | 100 nM | 1260 nM | > 1000 nM | 398 nM | CCCCCCOc1c[nH]nc1C1=CCCN(C)C1 [Compound 33B, 3-(4-Hexyloxy-1H-pyrazol-3-yl]-1,2,5,6-tetrahydro-1-methylpyridine] | 316 nM | 1000 nM | > 1000 nM | > 1000 nM | > 1000 nM |  |  |  |  |  | 
631 nM | 7940 nM | 126 nM | 5010 nM | > 1000 nM | 794 nM | CCCCCSc1nc[nH]c1C1=CCCN(C)C1 [Compound 76A, 3-(5-Pentylsulfanyl-3H-imidazol-4-yl)-1,2,5,6-tetrahydro-1-methylpyridine] | 316 nM | 2510 nM | > 1000 nM | > 1000 nM | > 1000 nM |  |  |  |  |  | 
 |  |  |  |  |  | CCCCCOc1c[nH]nc1C1CN2CCC1CC2 (stereo not shown) [Compound 52C, 3-(4-Pentyloxy-1H-pyrazol-3-yl)-1-azabicyclo[2.2.2]octane] | 251 nM | 1000 nM | > 1000 nM | > 1000 nM | > 1000 nM | 63.1 nM | 12.6 nM | 2510 nM | > 1000 nM | 631 nM | 
 |  |  |  |  |  | CCCCOc1c[nH]nc1C1CN2CCC1CC2 (stereo not shown) [Compound 52A, 3-(4-Butoxy-1H-pyrazol-3-yl)-1-azabicyclo[2.2.2]octane] | 251 nM | 794 nM | > 1000 nM | > 1000 nM | > 1000 nM | 126 nM | 20 nM | 3980 nM | > 1000 nM | 794 nM | 
1000 nM | 1000 nM | 79.4 nM | 6310 nM | > 1000 nM | 2510 nM | CCCCCCSc1nc[nH]c1C1=CCCN(C)C1 [Compound 76B, 3-(5-Hexylsulfanyl-3H-imidazol-4-yl)-1,2,5,6-tetrahydro-1-methylpyridine] | 501 nM | 3980 nM | > 1000 nM | > 1000 nM | > 1000 nM |  |  |  |  |  | 
 |  |  |  |  |  | CCCSc1c[nH]nc1C1CN2CCC1CC2 (stereo not shown) [Compound 49E, 3-(4-Propylsulfanyl-1H-pyrazol-3-yl)-1-azabicyclo[2.2.2]octane] | 39.8 nM | 316 nM | 794 nM | > 1000 nM | > 1000 nM | 79.4 nM | 10 nM | 501 nM | > 1000 nM | 126 nM | EC50 [3]: 79.4 nM
 |  |  |  |  |  | c1ccc(CCSc2c[nH]nc2C2CN3CCC2CC3)cc1 (stereo not shown) [Compound 49G, 3-(4-Phenethylsulfanyl-1H-pyrazol-3-yl)-1-azabicyclo[2.2.2]octane] |  |  |  |  |  |  |  |  |  |  | RB Musc. M4 3H-DAMP pKi [1]: 7.0; RB Musc. M4 3H-Oxotremorine pKi [2]: 7.6; Cell funct. Musc. M4 Agonism pEC50 [3]: 8.0; RB Musc. M1 3H-Pirenzepine pKi [4]: 6.2; Cell funct. Musc. M1 Agonism pEC50 [5]: 7.3; RB Musc M2 methoctramine [6]: 6.1; Cell funct. Musc. M2 Agonism pEC50 [7]: <6; Cell funct. Musc. M2 Antagonism pA2 [7]: <6; RB Musc M3 4-DAMP [8]: 6.5; Cell funct. Musc. M3 Agonism pEC50 [9]: <6; Cell funct. Musc. M3 Antagonism pA2 [9]: <6
